Tests used:
[1] = Change of blood pressure, intravenous administration, anesthetized dog; type: in vivo; design: unit not given here; details: femoral artery
Description: (§1) The change of blood flow in coronary artery and the change of blood pressure were measured by a method according to Yakura et al., [Japan Journal of Pharmacology, Vol. 57, pages 380-391 (1961)] and according to Taira, et al. [Clin. Exp. Pharmacol. Physiol., Vol. 6, pages 301-316, (1976)].
(§2) An adult bastard dog of either sex weighing 8-13 kg was anesthetized with sodium pentobarbital at the rate of 30 mg/kg by intraveneous administration, then the dog was fixed in supination and was theracotomized under a condition of forced breathing. After another intraveneous administration of sodium heparin at the rate of 500 U/kg, 100 U/kg per hour, the dog was subjected to the following experiments.
(§3) (2) Intraveneous administration
(§4) Morawitz's cannula was cannulated to the coronary sinus venosus through the auricula dextra cordis, and the blood in vein was circulated to the right carotid. The blood flow was measured by an electromagnetic blood flow meter equipped with a blood flow observation probe in the extracorporeal circulation path of the vein. The systolic force was measured by a systolometer (pick-up) placed at the left ventricle of heart, the blood pressure was measured from the femoral artery, and the heart rate was measured from the pulse. A compound to be tested was administered through the cannula being cannulated in femoral vein. The increased amount of the blood flow in coronary artery after the administration of the test compound is shown in Table 4, also the change of blood pressure is shown in Table 5.

[2] = system: coronary artery; assay: Increased amount of the blood flow in coronary artery, intravenous administration, anesthetized dog; type: in vivo
Description: as §1, §2, §3, §4

[3] = system: ADP-induced aggregation in rabbit platelets; assay: Inhibition of ADP-induced platelet aggregation in rabbit platelet rich plasma; type: cell-based; details: Oryctolagus cuniculus, read-out: Inhibition rate of ADP-induced aggregation; for inhibition at 100 µM (stock): Concentration of the test compound solution 10^-4 mole; for inhibition at 10 µM (stock): Concentration of the test compound solution 10^-5 mole
Description: (§5) The platelet aggregation inhibitory effect was measured by using a Platelet Aggregation Tracer Model PAT-6M (manufactured by Nikoh Bio-Science Co., Ltd.) by a method according to Kimura, et al., [IGAKU-NO-AYUMI (Progress in Medicine), Vol. 114, No. 9, pp. 718-727, Aug. 30, 1980, and Nature, pp. 927-929, 1962].
(§6) The blood sample used for the test was a 1:9 (by volume) mixture of "3.8%-CITRATE"® (a registered trademark for 3.8%-sodium citrate, manufactured by Green Cross Corp.) and whole blood collected from rabbits. Said sample was subjected to 10-minute centrifugal separation at 1,000 r.p.m. (200xG) to obtain a platelet rich plasma (PRP). The PRP thus obtained was separated, and the remaining blood sample was further subjected to 15-minute centrifugal separation at 3,000 r.p.m. (2,000xG) to obtain a platelet poor plasma (PPP).
(§7) The number of platelets in the PRP was counted by the Brecher-Clonkite Method, and the PRP was diluted with the PPP to prepare a PRP sample with a platelet concentration of 600,000/microliter to prepare for an adenosine diphosphate (ADP)-induced aggregation test, and a collagen-induced aggregation test. 0.2 Milliliter of the PRP sample was added to 2 microliters of a solution of a test compound of predetermined concentration and this mixture was placed in a 37° C. thermostat for one minute. Then 20 microliters of an ADP or collagen solution was added to the mixture. In this test, the ADP solution was prepared by adjustment to a concentration of 7.5×10^-5 M by using Auren-Beronal buffer solution (pH 7.35). Further, the collagen solution was prepared by adjustment to a concentration of 200 micrograms/ml by using collagen reagent of "Holm"® (manufactured by Hormon-Chemie Munchen, GmbH.) which was diluted wih a physiological saline solution.
(§8) The transmittance of the resultant test mixture was determined and the change of transmittance was recorded by using the aggregometer at a stirrer speed of 1,100 r.p.m.
(§9) The platelet aggregation inhibitory effect of the test compound was measured in terms of inhibition rate (%) with respect to the aggregation rate of the controls. The aggregation rate was calculated from the following formula.
(§10) Aggregation rate=[(c-a)/(b-a)]×100
(§11) The percent inhibition is calculated from the following formula.
(§12) Inhibition rate (%)=[(A-B)/A]×100
(§13) The inhibitory effect of the test compounds on collagen-induced aggregation in rabbit platelets is shown in Table 1, similarly such effect on ADP-induced aggregation in rabbit platelets is shown in Table 2.

[4] = system: collagen-induced aggregation in rabbit platelets; assay: Inhibition of collagen-induced platelet aggregation in rabbit platelet rich plasma; type: cell-based; details: Oryctolagus cuniculus, read-out: Inhibition rate of collagen-induced aggregation; for inhibition at 100 µM (stock): Concentration of the test compound solution 10^-4 mole; for inhibition at 10 µM (stock): Concentration of the test compound solution 10^-5 mole
Description: as §5, §6, §7, §8, §9, §10, §11, §12, §13

| SMILES | Change of blood pressure ([1]; 10 micrograms/kg) | Change of blood pressure ([1]; 30 micrograms/kg) | Change of blood pressure ([1]; 100 micrograms/kg) | Change of blood pressure ([1]; 300 micrograms/kg) | inhibition at 100 µM (stock) [3] [%] | inhibition at 100 µM (stock) [4] [%] | also measured |
| --- | --- | --- | --- | --- | --- | --- | --- |
| CCCOc1ccc(OCCCOC(=O)C2=C(C)NC(C)=C(C(=O)OC)C2c2cccc([N+](=O)[O-])c2)c2c1NC(=O)CC2 (centres unmarked) [Compound 11, 5-{3-[2,6-Dimethyl-5-methoxycarbonyl-4-(3-nitrophenyl)-1,4-dihydropyridin-3-carboxy]-propoxy}-8-propoxy-3,4-dihydrocarbostyril] | -18 | -33 | -41 | -48 | 11 |  | Change of blood pressure ([1]; 3 micrograms/kg): -5; Increased amount of the blood flow in coronary artery ([2]; 3 micrograms/kg): 7 mL/min; Increased amount of the blood flow in coronary artery ([2]; 10 micrograms/kg): 26 mL/min; Increased amount of the blood flow in coronary artery ([2]; 30 micrograms/kg): 58 mL/min; Increased amount of the blood flow in coronary artery ([2]; 100 micrograms/kg): 56 mL/min; Increased amount of the blood flow in coronary artery ([2]; 300 micrograms/kg): 73 mL/min |
| C#CCOc1ccc(OCCCOC(=O)C2=C(C)NC(C)=C(C(=O)OC)C2c2cccc([N+](=O)[O-])c2)c2c1NC(=O)CC2 (centres unmarked) [Compound 12, 5-{3-[2,6-Dimethyl-5-methoxycarbonyl-4-(3-nitrophenyl)-1,4-dihydropyridin-3-carboxy]-propoxy}-8-(2-propynyloxy)-3,4-dihydrocarbostyril] | -5 | -23 | -49 |  | 14 |  | Increased amount of the blood flow in coronary artery ([2]; 3 micrograms/kg): 5 mL/min; Increased amount of the blood flow in coronary artery ([2]; 10 micrograms/kg): 30 mL/min; Increased amount of the blood flow in coronary artery ([2]; 30 micrograms/kg): 74 mL/min; Increased amount of the blood flow in coronary artery ([2]; 100 micrograms/kg): 63 mL/min |
| COC(=O)C1=C(C)NC(C)=C(C(=O)OCCOc2cccc3c2NC(=O)CC3)C1c1cccc([N+](=O)[O-])c1 (centres unmarked) [Compound 13, 8-{2-[2,6-Dimethyl-5-methoxycarbonyl-4-(3-nitrophenyl)-1,4-dihydropyridin-3-carboxy]-ethoxy}-3,4-dihydrocarbostyril] | -16 | -32 | -52 |  |  |  | Change of blood pressure ([1]; 3 micrograms/kg): -7 |
| COC(=O)C1=C(C)NC(C)=C(C(=O)OCCOc2ccc3c(c2)NC(=O)CC3)C1c1cccc([N+](=O)[O-])c1 (centres unmarked) [Compound 14, 7-{2-[2,6-Dimethyl-5-methoxycarbonyl-4-(3-nitrophenyl)-1,4,-dihydropyridin-3-carboxy]-ethoxy}-3,4-dihydrocarbostyril] |  | -2 | -14 | -32 |  |  |  |
| COC(=O)C1=C(C)NC(C)=C(C(=O)OCCCCOc2ccc3[nH]c(=O)ccc3c2)C1c1cccc([N+](=O)[O-])c1 (centres unmarked) [Compound 15, 6-{4-[2,6-Dimethyl-5-methoxycarbonyl-4-(3-nitrophenyl)-1,4-dihydropyridin-3-carboxy]-butoxy}carbostyril] |  | -3 | -9 | -27 | 100 | 100 | inhibition at 10 µM (stock) [4]: 26%; inhibition at 10 µM (stock) [3]: 20% |
| COC(=O)C1=C(C)NC(C)=C(C(=O)OCCCCOc2ccc3c(c2)CCC(=O)N3)C1c1cccc([N+](=O)[O-])c1 (centres unmarked) [Compound 16, 6-{4-[2,6-Dimethyl-5-methoxycarbonyl-4-(3-nitrophenyl)-1,4-dihydropyridin-3-carboxy]-butoxy}-3,4-dihydrocarbostyril] | -12 | -27 |  | -54 |  |  | Change of blood pressure ([1]; 3 micrograms/kg): -3 |
| COC(=O)C1=C(C)NC(C)=C(C(=O)OCCCCOc2cccc3c2CCC(=O)N3)C1c1cccc([N+](=O)[O-])c1 (centres unmarked) [Compound 17, 5-{4-[2,6-Dimethyl-5-methoxycarbonyl-4-(3-nitrophenyl)-1,4-dihydropyridin-3-carboxy]-butoxy}-3,4-dihydrocarbostyril] | -4 | -14 | -55 | -76 |  |  |  |
| COC(=O)C1=C(C)NC(C)=C(C(=O)OCCCCOc2cccc3[nH]c(=O)ccc23)C1c1cccc([N+](=O)[O-])c1 (centres unmarked) [Compound 18, 5-{4-[2,6-Dimethyl-5-methoxycarbonyl-4-(3-nitrophenyl)-1,4-dihydropyridin-3-carboxy]-butoxy}carbostyril] | -5 | -19 | -33 | -43 | 48 | 100 | inhibition at 10 µM (stock) [4]: 3%; inhibition at 10 µM (stock) [3]: 15% |
| COC(=O)C1=C(C)NC(C)=C(C(=O)OCC(COc2ccc3c(c2)CCC(=O)N3)OC(C)=O)C1c1cccc([N+](=O)[O-])c1 (centres unmarked) [Compound 23, 6-{3-[2,6-Dimethyl-5-methoxycarbonyl-4-(3-nitrophenyl)-1,4-dihydropyridin-3-carboxy]-2-acetoxypropoxy}-3,4-dihydrocarbostyril] |  |  |  |  | 79 | 100 | inhibition at 10 µM (stock) [4]: 29%; inhibition at 10 µM (stock) [3]: 29% |
| COC(=O)C1=C(C)NC(C)=C(C(=O)OCCCCOc2ccc3c(c2)CCC(=O)N3)C1c1ccccc1C(F)(F)F (centres unmarked) [Compound 25, 6-{4-[2,6-Dimethyl-5-methoxycarbonyl-4-(2-trifluoromethylphenyl)-1,4-dihydropyridin-3-carboxy]butoxy}-3,4-dihydrocarbostyril] | -34 | -46 |  |  |  |  | Change of blood pressure ([1]; 3 micrograms/kg): -9 |
| COC(=O)C1=C(C)NC(C)=C(C(=O)OCC(O)COc2ccc3c(c2)CCC(=O)N3)C1c1cccc([N+](=O)[O-])c1 (centres unmarked) [Compound 39, 6-{3-[2,6-Dimethyl-5-methoxycarbonyl-4-(3-nitrophenyl)-1,4-dihydropyridin-3-carboxy]-2-hydroxypropoxy}-3,4-dihydro-carbostyril] |  |  |  |  | 76 | 100 | inhibition at 10 µM (stock) [4]: 19% |
| COC(=O)C1=C(C)NC(C)=C(C(=O)OCCCCOc2ccc3c(c2)CCC(=O)N3)C1c1ccc(OC)c(OC)c1 (centres unmarked) [Compound 40, 6-{4-[2,6-Dimethyl-5-methoxycarbonyl-4-(3,4-dimethoxyphenyl)-1,4-dihydropyridin-3-carboxy]butoxy}-3,4-dihydrocarbostyril] |  |  |  |  | 14 | 15 |  |
| COC(=O)C1=C(C)NC(C)=C(C(=O)OCCCCOc2ccc3c(c2)CCC(=O)N3)C1c1cc(OC)c(OC)c(OC)c1 (centres unmarked) [Compound 41, 6-{4-[2,6-Dimethyl-5-methoxycarbonyl-4-(3,4,5-trimethoxyphenyl)-1,4-dihydropyridin-3-carboxy]butoxy}-3,4-dihydrocarbostyril] |  |  |  |  | 30 | 35 |  |
| COC(=O)C1=C(C)NC(C)=C(C(=O)OCCCCOc2ccc3c(c2)CCC(=O)N3)C1c1ccc(Cl)cc1Cl (centres unmarked) [Compound 42, 6-{4-[2,6-Dimethyl-5-methoxycarbonyl-4-(2,4-dichlorophenyl)-1,4-dihydropyridin-3-carboxy]butoxy}-3,4-dihydrocarbostyril] |  |  |  |  | 26 | 39 |  |
